Test results: US9833497B2, “Human originated EGF domain proteins and use of the same” (CHENGDU SOURCEBIO LIMITED-LIABILITY COMPANY, priority 2013, dated 2017)

Key:
Type in all cases: cell-based
[1] = test system: Proteus vulgaris; assay: MIC against Gram-negative bacteria: Proteus vulgaris; conditions: for MIC: P. vulgaris; for MIC / MIC P. vulgaris: 10 h cultivation at 37° C.; for MIC P. vulgaris: two-fold serial dilution
Procedure, shortened: (§1)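 Two-fold serial dilutions of each purified human EGF domain protein, three replicate wells per level, were combined with bacteria at a final 5×10^5 CFU/mL in LB. Cultures were shaken at 175 rpm, 37° C. The MIC was taken as the minimum concentration preventing growth.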

[2] = test system: Proteus mirabilis; assay: MIC against Gram-negative bacteria: Proteus mirabilis; conditions: for MIC: P. mirabilis; for MIC / MIC P. mirabilis: 10 h cultivation at 37° C.; for MIC P. mirabilis: two-fold serial dilution
Procedure, shortened: as §1

[3] = test system: Citrobacter diversus; assay: MIC against Gram-negative bacteria: Citrobacter diversus; conditions: for MIC: C. diversus; for MIC / MIC C. diversus: 10 h cultivation at 37° C.; for MIC C. diversus: two-fold serial dilution
Procedure, shortened: as §1

[4] = test system: Serratia marcescens; assay: MIC against Gram-negative bacteria: Serratia marcescens; conditions: for MIC: S. marcescens; for MIC / MIC S. marcescens: 10 h cultivation at 37° C.; for MIC S. marcescens: two-fold serial dilution
Procedure, shortened: as §1

[5] = test system: Klebsiella pneumonia; assay: MIC against Gram-negative bacteria: Klebsiella pneumonia; conditions: for MIC: K. pneumonia; for MIC / MIC K. pneumonia: 10 h cultivation at 37° C.; for MIC K. pneumonia: two-fold serial dilution
Procedure, shortened: as §1

[6] = test system: Enterobacter cloacae; assay: MIC against Gram-negative bacteria: Enterobacter cloacae; conditions: for MIC: E. cloacae; for MIC / MIC E. cloacae: 10 h cultivation at 37° C.; for MIC E. cloacae: two-fold serial dilution
Procedure, shortened: as §1

[7] = test system: Aeromonas hydrophila; assay: MIC against Gram-negative bacteria: Aeromonas hydrophila; conditions: for MIC: A. hydrophila; for MIC / MIC A. hydrophila: 10 h cultivation at 37° C.; for MIC A. hydrophila: two-fold serial dilution
Procedure, shortened: as §1

[8] = test system: E. coli DH5α; assay: Antibacterial activity: MIC and growth curve against E. coli DH5α in 96-well plate; conditions: minimal inhibitory concentration against E. coli DH5α; 96-well plate, 5×10^5 CFU/mL, 37° C., judged after 8 h
Procedure, shortened: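 Log-phase DH5α (OD600 about 0.5, 37° C, 185 rpm in LB) was pelleted, resuspended in fresh LB and seeded at 5×10^5 CFU/mL with recombinant protein at 50, 25 and 12.5 μg/mL (two-fold series), in triplicate. Plates were shaken at 175 rpm, 37° C, and OD600 was read every 30 min. MIC was the lowest concentration with no growth.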

[9] = test system: E. coli BL21; assay: MIC against Gram-negative bacteria: E. coli BL21; conditions: for MIC / MIC E. coli BL21: 10 h cultivation at 37° C.; for MIC E. coli BL21: two-fold serial dilution
Procedure, shortened: as §1

[10] = test system: Pseudomonas aeruginosa; assay: MIC against Gram-negative bacteria: Pseudomonas aeruginosa; conditions: for MIC: P. aeruginosa; for MIC / MIC P. aeruginosa: 10 h cultivation at 37° C.; for MIC P. aeruginosa: two-fold serial dilution
Procedure, shortened: as §1

[11] = test system: Moraxella catarrhalis; assay: MIC against Gram-negative bacteria: Moraxella catarrhalis; conditions: for MIC: M. catarrhalis; for MIC / MIC M. catarrhalis: 10 h cultivation at 37° C.; for MIC M. catarrhalis: two-fold serial dilution
Procedure, shortened: as §1

[12] = 96-well plate, 5×10^5 CFU/mL, 37° C., 10 h

PRT398 (DDNECHAQPDLCVNGRCVNTAGSFRCDCDEGFQPSPTLTECH; listed as Homo sapiens)
MIC ([1]; 5×10^5 CFU/mL): 12.5 µg/mL
MIC ([2]; 5×10^5 CFU/mL): 12.5 µg/mL
MIC ([3]; 5×10^5 CFU/mL): 50 µg/mL
MIC ([4]; 5×10^5 CFU/mL): 100 µg/mL
MIC ([5]; 5×10^5 CFU/mL): 12.5 µg/mL
MIC ([6]; 5×10^5 CFU/mL): 50 µg/mL
MIC ([7]; 5×10^5 CFU/mL): 12.5 µg/mL
MIC [8]: 50 µg/mL
MIC ([9]; E. coli BL21, 5×10^5 CFU/mL): 12.5 µg/mL
MIC ([10]; 5×10^5 CFU/mL): 50 µg/mL
MIC ([11]; 5×10^5 CFU/mL): 12.5 µg/mL

PRT1185 (REFQCDAYTCSNGGTCYDSGDTFRCACPPGWKGSTCA; listed as Homo sapiens)
MIC P. vulgaris ([1]; 5×10^5 CFU/mL): 50 µg/mL
MIC P. mirabilis ([2]; 5×10^5 CFU/mL): 12.5 µg/mL
MIC C. diversus ([3]; 5×10^5 CFU/mL): 12.5 µg/mL
MIC S. marcescens ([4]; 5×10^5 CFU/mL): 12.5 µg/mL
MIC K. pneumonia ([5]; 5×10^5 CFU/mL): 50 µg/mL
MIC E. cloacae ([6]; 5×10^5 CFU/mL): 12.5 µg/mL
MIC A. hydrophila ([7]; 5×10^5 CFU/mL): 50 µg/mL
MIC [8]: 50 µg/mL
MIC E. coli BL21 ([9]; 5×10^5 CFU/mL): 12.5 µg/mL
MIC P. aeruginosa ([10]; 5×10^5 CFU/mL): 25 µg/mL
MIC M. catarrhalis ([11]; 5×10^5 CFU/mL): 50 µg/mL

PRT1170 (RNSSCLPNPCHNGGTCVVNGESFTCVCKEGWEGPICA; listed as Homo sapiens)
MIC P. vulgaris ([1]; 5×10^5 CFU/mL): 12.5 µg/mL
MIC P. mirabilis ([2]; 5×10^5 CFU/mL): 12.5 µg/mL
MIC C. diversus ([3]; 5×10^5 CFU/mL): 12.5 µg/mL
MIC S. marcescens ([4]; 5×10^5 CFU/mL): 25 µg/mL
MIC K. pneumonia ([5]; 5×10^5 CFU/mL): 12.5 µg/mL
MIC E. cloacae ([6]; 5×10^5 CFU/mL): 100 µg/mL
MIC A. hydrophila ([7]; 5×10^5 CFU/mL): 50 µg/mL
MIC [8]: 25 µg/mL
MIC E. coli BL21 ([9]; 5×10^5 CFU/mL): 12.5 µg/mL
MIC P. aeruginosa ([10]; 5×10^5 CFU/mL): 25 µg/mL
MIC M. catarrhalis ([11]; 5×10^5 CFU/mL): 50 µg/mL

PRT577 (CACHPSRARGPTCNEFTGQCHCRAGFGGRTCSECQELHWGDPGLQCHA; listed as Homo sapiens)
MIC against P. vulgaris [1, 12]: 12.5 µg/mL
MIC against P. mirabilis [2, 12]: 50 µg/mL
MIC against C. diversus [3, 12]: 50 µg/mL
MIC against S. marcescens [4, 12]: 50 µg/mL
MIC against K. pneumonia [5, 12]: 25 µg/mL
MIC against E. cloacae [6, 12]: 12.5 µg/mL
MIC against A. hydrophila [7, 12]: 25 µg/mL
MIC [8]: 12.5 µg/mL
MIC against E. coli BL21 [9, 12]: 25 µg/mL
MIC against P. aeruginosa [10, 12]: 50 µg/mL
MIC against M. catarrhalis [11, 12]: 12.5 µg/mL

PRT74 (CDCFPHGSHSRTCDMATGQCACKPGVIGRQCNRCDNPFAEVTTLGCEV; listed as Homo sapiens)
MIC (μg/mL) P. vulgaris ([1]; Proteus vulgaris, 96-well plate, 5×10^5 CFU/mL, 37° C., 10 h): 12.5 µg/mL
MIC (μg/mL) P. mirabilis ([2]; Proteus mirabilis, 96-well plate, 5×10^5 CFU/mL, 37° C., 10 h): 12.5 µg/mL
MIC (μg/mL) C. diversus ([3]; Citrobacter diversus, 96-well plate, 5×10^5 CFU/mL, 37° C., 10 h): 12.5 µg/mL
MIC (μg/mL) S. marcescens ([4]; Serratia marcescens, 96-well plate, 5×10^5 CFU/mL, 37° C., 10 h): 25 µg/mL
MIC (μg/mL) K. pneumonia ([5]; Klebsiella pneumonia, 96-well plate, 5×10^5 CFU/mL, 37° C., 10 h): 50 µg/mL
MIC (μg/mL) E. cloacae ([6]; Enterobacter cloacae, 96-well plate, 5×10^5 CFU/mL, 37° C., 10 h): 25 µg/mL
MIC (μg/mL) A. hydrophila ([7]; Aeromonas hydrophila, 96-well plate, 5×10^5 CFU/mL, 37° C., 10 h): 12.5 µg/mL
MIC [8]: 50 µg/mL
MIC (μg/mL) E. coli BL21 ([9]; E. coli BL21, 96-well plate, 5×10^5 CFU/mL, 37° C., 10 h): 12.5 µg/mL
MIC (μg/mL) P. aeruginosa ([10]; Pseudomonas aeruginosa, 96-well plate, 5×10^5 CFU/mL, 37° C., 10 h): 25 µg/mL
MIC (μg/mL) M. catarrhalis ([11]; Moraxella catarrhalis, 96-well plate, 5×10^5 CFU/mL, 37° C., 10 h): 12.5 µg/mL

PRT1099 (PSTVCGNEKTNLTCYNGGNCTEFQTELKCMCRPGFTGEWCE; listed as Homo sapiens)
MIC P. vulgaris ([1]; 5×10^5 CFU/mL): 50 µg/mL
MIC P. mirabilis ([2]; 5×10^5 CFU/mL): 25 µg/mL
MIC C. diversus ([3]; 5×10^5 CFU/mL): 25 µg/mL
MIC S. marcescens ([4]; 5×10^5 CFU/mL): 12.5 µg/mL
MIC K. pneumonia ([5]; 5×10^5 CFU/mL): 50 µg/mL
MIC E. cloacae ([6]; 5×10^5 CFU/mL): 12.5 µg/mL
MIC A. hydrophila ([7]; 5×10^5 CFU/mL): 50 µg/mL
MIC [8]: 12.5 µg/mL
MIC E. coli BL21 ([9]; 5×10^5 CFU/mL): 50 µg/mL
MIC P. aeruginosa ([10]; 5×10^5 CFU/mL): 12.5 µg/mL
MIC M. catarrhalis ([11]; 5×10^5 CFU/mL): 12.5 µg/mL

PRT1038 (FDMPCDETLCSADSFCVNDYTWGGSRCQCTLGKGGESCS; listed as Homo sapiens)
MIC [1]: 12.5 µg/mL
MIC [2]: 50 µg/mL
MIC [3]: 25 µg/mL
MIC [4]: 25 µg/mL
MIC [5]: 50 µg/mL
MIC [6]: 50 µg/mL
MIC [7]: 12.5 µg/mL
MIC [8]: 50 µg/mL
MIC ([9]; E. coli BL21): 12.5 µg/mL
MIC [10]: 50 µg/mL
MIC [11]: 50 µg/mL
